Among the data in patent US9855230B2 (ViiV Healthcare UK (No. 5) Limited, priority 2014, dated 2018) are CC50 and EC50 values, retold here.

One may read the CC50 as the concentration at which the toxic effect on the cells reaches its halfway point. Read a low CC50 as harm at low concentration.

Each structure is given as a SMILES string. Structures can show the parent of a compound that is named as a salt. Where two headings read alike, the source gives them in different places.

Data set [1] is described as follows: Compound cytotoxicity (CC50), XTT-based colorimetric assay. In kind it is cell-based. Conditions: human; uninfected MT2 cells, day 4, XTT assay. An outline of the steps:
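Run under the antiviral-assay protocol but without virus. Viability was read on day 4 and CC50 values were derived from the readout.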
For orientation: Tetrazolium assays rely on reduction of a dye to a coloured formazan, in cell work by metabolically active cells.

Data set [2] concerns recombinant NL4-3 virus (nef section replaced with Renilla luciferase gene) in MT-2 cells. Briefly: whole plant or invertebrate. In kind it is cell-based, HIV. The procedure, abridged: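 Nef-deleted NL4-3 reporter virus carrying Renilla luciferase was used to infect MT-2 cells in the presence of serial compound dilutions. After 4-5 days of infection, antiviral activity was quantified from luciferase activity using a live-cell substrate.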

The mark [3] stands for this setting: NL43, luciferase activity in MT-2 cells infected 4-5 days with recombinant NL4-3 virus, read-out: Activity.
The mark [4] stands for this setting: NL43, luciferase activity in MT-2 cells infected 4-5 days with recombinant NL4-3 virus, read-out: EC50.

`Cc1ccccc1S(=O)(=O)NC(=O)N[C@@H](Cc1ccccc1)c1nccn1-c1ccc2ccccc2c1` [Example 69, (S)-2-methyl-N-((1-(1-(naphthalen-2-yl)-1H-imidazol-2-yl)-2-phenylethyl)carbamoyl)benzenesulfonamide] came in with a CC50 at 4 day in data set [1] of more than 100000 nM. In addition, the EC50 is less than 100 nM in data set [2] (setting [3]) and 40 nM in data set [2] (setting [4]).
`Cc1ccccc1S(=O)(=O)NC(=O)N[C@@H](Cc1ccccc1)c1nccn1-c1ccc2scnc2c1` [Example 70, (S)-N-((1-(1-(benzo[d]thiazol-5-yl)-1H-imidazol-2-yl)-2-phenylethyl)carbamoyl)-2-methylbenzenesulfonamide]: the CC50 at 4 day in data set [1] is more than 100000 nM. For the same compound, in data set [2] (setting [3]), the EC50 is less than 100 nM.
In the case of `O=C(N[C@@H](Cc1ccccc1)c1nccn1-c1ccc2scnc2c1)NS(=O)(=O)c1ccccc1F` [Example 71, (S)-N-((1-(1-(benzo[d]thiazol-5-yl)-1H-imidazol-2-yl)-2-phenylethyl)carbamoyl)-2-fluorobenzenesulfonamide], in data set [1], the CC50 at 4 day was more than 100000 nM. Also, in data set [2] (setting [3]), the EC50 lay in the range of 100 to 1000 nM.
The compound `Cc1nc2cc(-n3ccnc3[C@H](Cc3ccccc3)NC(=O)NS(=O)(=O)c3ccccc3C)ccc2s1` [Example 72, (S)-2-methyl-N-((1-(1-(2-methylbenzo[d]thiazol-5-yl)-1H-imidazol-2-yl)-2-phenylethyl)carbamoyl)benzenesulfonamide] came in with a CC50 at 4 day in data set [1] of more than 100000 nM. Further, the EC50 in data set [2] (setting [3]) is less than 100 nM; in data set [2] (setting [4]) it was 50 nM.
In data set [1], `Cc1nc2cc(-n3ccnc3[C@H](Cc3ccccc3)NC(=O)NS(=O)(=O)c3ccccc3F)ccc2s1` [Example 73, (S)-2-fluoro-N-((1-(1-(2-methylbenzo[d]thiazol-5-yl)-1H-imidazol-2-yl)-2-phenylethyl)carbamoyl)benzenesulfonamide] had a CC50 at 4 day of more than 100000 nM. In addition, the EC50 in data set [2] (setting [3]) fell in the range of 100 to 1000 nM.
Compound `Cc1ccccc1S(=O)(=O)NC(=O)N[C@@H](Cc1ccccc1)c1nccn1-c1ccc2sccc2c1` [Example 74, (S)-N-((1-(1-(benzo[b]thiophen-5-yl)-1H-imidazol-2-yl)-2-phenylethyl)carbamoyl)-2-methylbenzenesulfonamide] showed a half-maximal cytotoxic concentration (CC50) at 4 day in data set [1] of 39000 nM. Moreover, the EC50 in data set [2] (setting [3]) was less than 100 nM.
Consider `O=C(N[C@@H](Cc1ccccc1)c1nccn1-c1ccc2c(c1)CCO2)NS(=O)(=O)c1ccccc1F` [Example 75, (S)-N-((1-(1-(2,3-dihydrobenzofuran-5-yl)-1H-imidazol-2-yl)-2-phenylethyl)carbamoyl)-2-fluorobenzenesulfonamide], for which the CC50 at 4 day in data set [1] is more than 100000 nM. For the same compound, the EC50 in data set [2] (setting [3]) was less than 100 nM; in data set [2] (setting [4]), 20 nM.
The compound `COC(=O)Nc1cccc(-n2ccnc2[C@H](Cc2ccccc2)NC(=O)NS(=O)(=O)c2ccccc2C)c1` [Example 76, (S)-methyl (3-(2-(2-phenyl-1-(3-(o-tolylsulfonyl)ureido)ethyl)-1H-imidazol-1-yl)phenyl)carbamate] came in with a CC50 at 4 day in data set [1] of more than 100000 nM. Moreover, in data set [2] (setting [3]), the EC50 was 100 to 1000 nM.
Turning to `Cc1ccccc1S(=O)(=O)NC(=O)N[C@@H](Cc1ccccc1)c1nccn1-c1ccc2occc2c1` [Example 77, (S)-N-((1-(1-(benzofuran-5-yl)-1H-imidazol-2-yl)-2-phenylethyl)carbamoyl)-2-methylbenzenesulfonamide], the cytotoxic concentration (CC50) at 4 day in data set [1] is more than 100000 nM. Besides, the EC50 in data set [2] (setting [3]) was less than 100 nM.
In turn, `O=C(N[C@@H](Cc1ccccc1)c1nccn1-c1ccc2occc2c1)NS(=O)(=O)c1ccccc1F` [Example 78, (S)-N-((1-(1-(benzofuran-5-yl)-1H-imidazol-2-yl)-2-phenylethyl)carbamoyl)-2-fluorobenzenesulfonamide] returned a CC50 at 4 day in data set [1] of more than 100000 nM. In addition, the figures for the EC50 in data set [2] (setting [3]) and in data set [2] (setting [4]) were less than 100 nM and 20 nM, respectively.
`CCCC(=O)Nc1cccc(-n2ccnc2[C@H](Cc2ccccc2)NC(=O)NS(=O)(=O)c2ccccc2C)c1` [Example 79, (S)-N-(3-(2-(2-phenyl-1-(3-(o-tolylsulfonyl)ureido)ethyl)-1H-imidazol-1-yl)phenyl)butyramide]: the 50% cytotoxic concentration (CC50) at 4 day in data set [1] is more than 100000 nM. In data set [2] (setting [3]), the EC50 is more than 1000 nM.
Compound `Cc1ccccc1S(=O)(=O)NC(=O)N[C@@H](Cc1ccccc1)c1nccn1-c1cnn(-c2ccccc2)c1` [Example 80, (S)-2-methyl-N-((2-phenyl-1-(1-(1-phenyl-1H-pyrazol-4-yl)-1H-imidazol-2-yl)ethyl)carbamoyl)benzenesulfonamide] showed a 50% cytotoxic concentration (CC50) at 4 day in data set [1] of more than 100000 nM. In addition, the EC50 in data set [2] (setting [3]) is less than 100 nM.
Turning to `Cc1ccccc1S(=O)(=O)NC(=O)N[C@@H](Cc1ccccc1)c1nccn1-c1cnn(Cc2ccccc2)c1` [Example 81, (S)-N-((1-(1-(1-benzyl-1H-pyrazol-4-yl)-1H-imidazol-2-yl)-2-phenylethyl)carbamoyl)-2-methylbenzenesulfonamide], in data set [1], the CC50 at 4 day was more than 100000 nM. In addition, the EC50 was 100 to 1000 nM in data set [2] (setting [3]) and 550 nM in data set [2] (setting [4]).
`Cc1ccccc1S(=O)(=O)NC(=O)N[C@@H](Cc1cc(F)cc(F)c1)c1nccn1-c1ccc2c(c1)CCO2` [Example 82, (S)-N-((2-(3,5-difluorophenyl)-1-(1-(2,3-dihydrobenzofuran-5-yl)-1H-imidazol-2-yl)ethyl)carbamoyl)-2-methylbenzenesulfonamide] had a CC50 at 4 day in data set [1] of more than 100000 nM. Also, the EC50 in data set [2] (setting [3]) is 100 to 1000 nM.
On the same counts, the results for `COc1ccc(Cn2c(Br)cnc2[C@H](Cc2ccccc2)NC(=O)NS(=O)(=O)c2ccc(C)cc2)cc1` [Example 83, (S)-N-((1-(5-bromo-1-(4-methoxybenzyl)-1H-imidazol-2-yl)-2-phenylethyl)carbamoyl)-4-methylbenzenesulfonamide] are more than 33000 nM and more than 1000 nM.
With `CCOc1ccc(-c2cccnc2[C@H](Cc2ccccc2)NC(=O)NS(=O)(=O)c2ccccc2C)cc1` [Example 88, (S)-N-((1-(3-(4-ethoxyphenyl)pyridin-2-yl)-2-phenylethyl)carbamoyl)-2-methylbenzenesulfonamide], the CC50 at 4 day in data set [1] is more than 100000 nM. Moreover, in data set [2] (setting [3]), the EC50 was 100 to 1000 nM.
Turning to `COC(=O)Nc1ccc(-c2cccnc2[C@H](Cc2cc(F)cc(F)c2)NC(=O)NS(=O)(=O)c2ccccc2C)cc1` [Example 89, (S)-methyl (4-(2-(2-(3,5-difluorophenyl)-1-(3-(o-tolylsulfonyl)ureido)ethyl)pyridin-3-yl)phenyl)carbamate], the cytotoxic concentration (CC50) at 4 day in data set [1] is more than 100000 nM. In data set [2] (NL43, read-out: Activity), the EC50 lay in the range of 100 to 1000 nM.
Compound `Cc1ccccc1S(=O)(=O)NC(=O)N[C@@H](Cc1cc(F)cc(F)c1)c1ncccc1-c1ccc2ccncc2c1` [Example 90, (S)-N-((2-(3,5-difluorophenyl)-1-(3-(isoquinolin-7-yl)pyridin-2-yl)ethyl)carbamoyl)-2-methylbenzenesulfonamide] showed a 50% cytotoxic concentration (CC50) at 4 day in data set [1] of more than 100000 nM. Besides, the results for the EC50 in data set [2] (setting [3]) and in data set [2] (setting [4]) were 100 to 1000 nM and 230 nM, respectively.
In the case of `COC(=O)Nc1ccc(-c2cccnc2[C@H](Cc2cc(F)cc(F)c2)NC(=O)NS(=O)(=O)c2ccccc2Cl)cc1` [Example 91, (S)-methyl (4-(2-(1-(3-((2-chlorophenyl)sulfonyl)ureido)-2-(3,5-difluorophenyl)ethyl)pyridin-3-yl)phenyl)carbamate, TFA], the CC50 at 4 day in data set [1] was more than 100000 nM. Also, the EC50 in data set [2] (setting [3]) is 100 to 1000 nM.
